Source: patent US20060216302A1, “Immunological markers” (priority 2003, published 2006)
Ends that are not written are not given here.

Key:
Lewis rats = assay: Antigenicity and cross-reactivity in rats inoculated with marker-KLH conjugates, serum ELISA (Example 7); type: in vivo, rat; conditions: for Candidate Marker Antibody Reactivity RBM1 / Candidate Marker Antibody Reactivity RBM2 / Candidate Marker Antibody Reactivity RBM4 / Candidate Marker Antibody Reactivity RBM5 / Candidate Marker Antibody Reactivity RBM6 / Candidate Marker Antibody Reactivity RBM7: Table 3; for Candidate Marker Antibody Reactivity RBM1: serum (1/100) of Lewis rats inoculated s.c. with 1.0 mg marker-KLH conjugate in Freund's incomplete adjuvant, day 14-21, ELISA wells coated with RBM1; for Candidate Marker Antibody Reactivity RBM2 / Candidate Marker Antibody Reactivity RBM4 / Candidate Marker Antibody Reactivity RBM5 / Candidate Marker Antibody Reactivity RBM6 / Candidate Marker Antibody Reactivity RBM7: serum (1/100) of Lewis rats inoculated with marker-KLH conjugate; for Candidate Marker Antibody Reactivity RBM2: ELISA wells coated with RBM2; for Candidate Marker Antibody Reactivity RBM4: ELISA wells coated with RBM4; for Candidate Marker Antibody Reactivity RBM5: ELISA wells coated with RBM5; for Candidate Marker Antibody Reactivity RBM6: ELISA wells coated with RBM6; for Candidate Marker Antibody Reactivity RBM7: ELISA wells coated with RBM7; for Relative Absorbance ±SE at 405 nm, Candidate Marker RBM1 / Relative Absorbance ±SE at 405 nm, Candidate Marker RBM4 / Relative Absorbance ±SE at 405 nm, Candidate Marker RBM5 / Relative Absorbance ±SE at 405 nm, Candidate Marker RBM6: Table 4, N = 3, rats inoculated with marker-KLH conjugate, ** P < .01; for Relative Absorbance ±SE at 405 nm, Candidate Marker RBM1: ELISA against RBM1; for Relative Absorbance ±SE at 405 nm, Candidate Marker RBM4: ELISA against RBM4; for Relative Absorbance ±SE at 405 nm, Candidate Marker RBM5: ELISA against RBM5; for Relative Absorbance ±SE at 405 nm, Candidate Marker RBM6: ELISA against RBM6; for Cross-reactivity among the candidate markers: text summary of Table 3, rat sera after marker-KLH inoculation
[1] = test system: polyclonal sera against a range of infectious agents and hormones; assay: ELISA cross-reactivity screen, whole panel of antisera; type: binding; conditions: whole panel of 12 antisera
human sera = assay: ELISA cross-reactivity of candidate markers with human sera (Example 9); conditions: human serum diluted 1/1000, goat anti-human-HRP, non-specific binding subtracted
Procedure: Four samples of human sera were obtained with appropriate consent. 20 The frozen samples of cell-free sera were thawed and diluted to 1/1000 in phosphate buffered saline at pH 7.0. Aliquots (100 ul) of these diluted antisera were added to ELISA plates pre-adsorbed with the biomarkers as described in Table 1. A goat anti-human-HRP secondary antibody was used to quantitate the amount of antibody bound to the various marker peptides. Non-specific binding (determined by plating antisera onto PVA coated wells) was subtracted from the readings of the individual marker wells.

rats = assay: Antigenicity in rats inoculated with free marker peptides, serum ELISA (Example 8); type: in vivo, rat; conditions: Table 5; for Candidate Marker Antibody Reactivity RBM1: rats inoculated with 1 mg free peptide (not KLH-conjugated) in Freund's incomplete adjuvant, ELISA against RBM1; for Candidate Marker Antibody Reactivity RBM2 / Candidate Marker Antibody Reactivity RBM3 / Candidate Marker Antibody Reactivity RBM4 / Candidate Marker Antibody Reactivity RBM5 / Candidate Marker Antibody Reactivity RBM6 / Candidate Marker Antibody Reactivity RBM7: rats inoculated with free peptide; for Candidate Marker Antibody Reactivity RBM2: ELISA against RBM2; for Candidate Marker Antibody Reactivity RBM3: ELISA against RBM3; for Candidate Marker Antibody Reactivity RBM4: ELISA against RBM4; for Candidate Marker Antibody Reactivity RBM5: ELISA against RBM5; for Candidate Marker Antibody Reactivity RBM6: ELISA against RBM6; for Candidate Marker Antibody Reactivity RBM7: ELISA against RBM7; for Antigenicity (measurable antibody response) of free marker peptide / Interference and cross-reaction with other marker candidates: rats; for Antigenicity (measurable antibody response) of free marker peptide: free peptide not conjugated to KLH; for Interference and cross-reaction with other marker candidates: free peptide

Row | Substance | Candidate Marker Antibody Reactivity RBM1 (Lewis rats) | Candidate Marker Antibody Reactivity RBM2 (Lewis rats) | Candidate Marker Antibody Reactivity RBM4 (Lewis rats) | Candidate Marker Antibody Reactivity RBM5 (Lewis rats) | Relative Absorbance ±SE at 405 nm, Candidate Marker RBM1 (Lewis rats) | Relative Absorbance ±SE at 405 nm, Candidate Marker RBM4 (Lewis rats) | Relative Absorbance ±SE at 405 nm, Candidate Marker RBM5 (Lewis rats) | Relative Absorbance ±SE at 405 nm, Candidate Marker RBM6 (Lewis rats) | Candidate Marker Antibody Reactivity, Serum Sample 1 (human sera) | Candidate Marker Antibody Reactivity, Serum Sample 2 (human sera) | Candidate Marker Antibody Reactivity, Serum Sample 3 (human sera) | Candidate Marker Antibody Reactivity, Serum Sample 4 (human sera) | Candidate Marker Antibody Reactivity RBM1 (rats) | Candidate Marker Antibody Reactivity RBM2 (rats) | Candidate Marker Antibody Reactivity RBM3 (rats) | Candidate Marker Antibody Reactivity RBM4 (rats) | Candidate Marker Antibody Reactivity RBM5 (rats) | Candidate Marker Antibody Reactivity RBM6 (rats) | Candidate Marker Antibody Reactivity RBM7 (rats) | Antigenicity (measurable antibody response) of free marker peptide (rats) | other results
1 | RLAHMYVGKT [RBM4, antisense peptide from angiotensin II complementary DNA, 3→5 direction; KLH conjugate for inoculation] | −.009 | .020 | .079 | .003 | .21 ± .06 | 2.26 ± .40** | .24 ± .23 | .32 ± .07 | .08 | .20 | −.16 | −.02 |  |  |  |  |  |  |  |  | Candidate Marker Antibody Reactivity RBM6 (Lewis rats): −.035; Candidate Marker Antibody Reactivity RBM7 (Lewis rats): −.030; Recognition by any antiserum tested [1]: did not cross-react
2 | HWRWRMRMHWRWRMRM [RBM6] |  |  |  |  | .12 ± .03 | .02 ± .04 | −07 ± .15 | .84 ± .13** | .22 | .24 | −.09 | −.03 | −.07 | .39 | .02 | −.06 | .19 | −.01 | .12 | failed to produce measurable immunity | 
3 | WFYMYFWFYMYF [RBM3] |  |  |  |  |  |  |  |  | .07 | .05 | −.07 | −.01 |  |  |  |  |  |  |  |  | 
4 | HRNYFHRNYF [RBM2] | .034 | .219 | −.037 | .041 |  |  |  |  | .26 | .05 | .27 | −.01 | −.02 | 3.34 | −.07 | −.01 | .05 | −.23 | −.05 | sufficiently antigenic to produce a measurable and consistent antibody response | Candidate Marker Antibody Reactivity RBM6 (Lewis rats): −.006; Candidate Marker Antibody Reactivity RBM7 (Lewis rats): .002; Cross-reactivity among the candidate markers (Lewis rats): cross-react weakly, but consistently; Interference and cross-reaction with other marker candidates (rats): did not interfere with each other's immune responses nor cross-react with other marker candidates
5 | WPHDMCWP [RBM7] |  |  |  |  |  |  |  |  | −.11 | .00 | .04 | −.02 | −.10 | .22 | −.06 | −.12 | .06 | −.10 | .63 | sufficiently antigenic to produce a measurable and consistent antibody response | Interference and cross-reaction with other marker candidates (rats): did not interfere with each other's immune responses nor cross-react with other marker candidates
6 | YFMYRRYFMYRR [RBM1] |  |  |  |  | .55 ± .15** | −.11 ± .14 | .11 ± .05 | .05 ± .07 | .16 | .01 | .08 | .01 | .00 | .20 | −.05 | −.04 | .1 | −.10 | .14 | failed to produce measurable immunity | 
7 | EGVYVPV [RBM5, peptide derived from the 5→3 reading of the cDNA encoding angiotensin II; T3 prints Glu-Gly-Val-Tyr-Val-His-Pro-Val] | −.018 | .068 | −.231 | .101 | .57 ± .25 | .15 ± .07 | 1.5 ± .44** | .50 ± .02 | .22 | .21 | −.02 | −.01 |  |  |  |  |  |  |  |  | Candidate Marker Antibody Reactivity RBM6 (Lewis rats): .006; Candidate Marker Antibody Reactivity RBM7 (Lewis rats): −.058; Cross-reactivity among the candidate markers (Lewis rats): cross-react weakly, but consistently
